Experimental data from ChEMBL document CHEMBL1649473, “Crystal structure of Bacillus anthracis dihydrofolate reductase with the dihydrophthalazine-based trimethoprim derivative RAB1 provides a structural explanation of potency and selectivity” (Antimicrob Agents Chemother, 2009).

What was measured:
Dihydrofolate reductase [1] = molecular target: T1, Dihydrofolate reductase (Bacillus anthracis, UniProt Q81R22); test: Inhibition of Bacillus anthracis DHFR
T1 sequence (Q81R22 whole entry): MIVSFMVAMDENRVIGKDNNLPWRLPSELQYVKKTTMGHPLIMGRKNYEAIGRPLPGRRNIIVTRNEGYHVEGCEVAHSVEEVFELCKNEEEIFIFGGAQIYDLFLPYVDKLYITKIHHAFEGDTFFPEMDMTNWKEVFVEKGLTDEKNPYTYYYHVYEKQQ

Bacillus anthracis = test: Antibacterial activity against Bacillus anthracis; format: functional
Dihydrofolate reductase [2] = molecular target: T2, Dihydrofolate reductase (Homo sapiens, UniProt P00374); test: Inhibition of human DHFR
T2 sequence (P00374 whole entry): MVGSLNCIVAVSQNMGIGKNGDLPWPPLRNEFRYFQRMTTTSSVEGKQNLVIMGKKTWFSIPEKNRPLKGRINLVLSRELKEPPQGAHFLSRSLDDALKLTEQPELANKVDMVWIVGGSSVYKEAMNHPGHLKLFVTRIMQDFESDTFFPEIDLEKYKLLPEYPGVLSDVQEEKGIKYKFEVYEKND

Row | SMILES | IC50 (Dihydrofolate reductase [1]) [nM] | MIC (Bacillus anthracis) [µg/mL] | IC50 (Dihydrofolate reductase [2]) [nM]
1 | CCCC[C@H]1c2ccccc2C=NN1C(=O)/C=C/c1cc(Cc2cnc(N)nc2N)cc(OC)c1OC | 170 |  | 
2 | C=CC(=O)N1N=Cc2ccccc2C1CCC (stereo unspecified) | 46 |  | 
3 | CC[C@H]1c2ccccc2C=NN1C(=O)/C=C/c1cc(Cc2cnc(N)nc2N)cc(OC)c1OC | 96 |  | 
4 | CCC[C@H]1c2ccccc2C=NN1C(=O)/C=C/c1cc(Cc2cnc(N)nc2N)cc(OC)c1OC | 54 | ≤ 12.8 | 110000
